# Measured values taken from US11434220B2, “Use of physiological cooling active ingredients, and compositions comprising such active ingredients” (BASF SE, priority 2017, dated 2022).
# Assays:
# human TRPM8 receptor = target: T1, human TRPM8 receptor (Homo sapiens, UniProt Q7Z2W7); test: Assay for TRPM8 modulators: Ca2+ fluorescence (Fluo-4) in HEK293-TRPM8 test cells; format: cell-based; settings: HEK293 cells stably transfected with human TRPM8, agonism, triplicates, 0.1-200 μM; read-out: Activity In vitro assay (EC50)
# T1 construct: expressed in transfected cells
# Source text: The test cell system produced, with human TRPM8 DNA, was a stably transfected HEK293 cell line. Preference is given here to HEK293 which, via the plasmid introduced, offers the option of induction of TRPM8 expression by means of tetracycline.
# The agonism or antagonism of the receptor can be quantified by means of a Ca^2+-sensitive dye (e.g. FURA, Fluo-4 etc.). Agonists on their own result in an increase in the Ca^2+ signal; antagonists in the presence of menthol, for example, result in a reduction in the Ca^2+ signal (in each case detected by means of the Fluo-4 dye which is caused to have different fluorescence properties by Ca^2+).
# First of all, in a manner known per se, a fresh culture of transformed HEK cells is produced in cell culture bottles. The HEK293-TRPM8 test cells are detached from the cell culture bottles by means of trypsin and 40 000 cells/well are sown with 100 μl of medium in 96-hole plates (Greiner #655948 poly-D-lysine-coated). For induction of the TRPM8 receptor, tetracycline is added to the growth medium (DMEM/HG, 10% FCS tetracycline-free, 4 mM L-glutamine, 15 μg/mL blasticidin, 100 μg/mL hygromycin B, 1 μg/mL tetracycline). The next day, the cells are laden with Fluo-4AM dye and the test is conducted.
# The test substances are used in the assay in triplicates in concentrations of 0.1-200 μM. Normally, the compounds are kept in DMSO solutions and diluted down for the assay to a maximum DMSO concentration of 2%.
# trained panelists = test: Sensory assessment: cooling intensity of inventive amides in 5% sugar solution compared to FEMA 4809; format: in vivo, human; settings: scale 1 (very weak) to 9 (very strong), n=10 to 11
# Description: […] What were assessed here were initial cooling intensity, overall cooling intensity and long-lasting action on a scale from 1 (very weak) to 9 (very strong).
# [1] = tested on: oral cavity of trained panelists; test: Time-intensity profile of cooling after 40 s mouth rinse with sample solution; format: in vivo, human; settings: for Cooling intensity: 40 s mouth rinse
# Description: To establish a time-intensity profile, the oral cavity of trained panelists (n=8 to 11) was rinsed for 40 seconds with a mouthful of a sample solution (2 ppm of FEMA 4809 or 50 ppm of FEMA 4496 or 50 ppm of 1) to 5)). Subsequently, the cooling intensity perceived was assessed at defined time intervals using a scale.
# T1 sequence (Q7Z2W7 whole entry): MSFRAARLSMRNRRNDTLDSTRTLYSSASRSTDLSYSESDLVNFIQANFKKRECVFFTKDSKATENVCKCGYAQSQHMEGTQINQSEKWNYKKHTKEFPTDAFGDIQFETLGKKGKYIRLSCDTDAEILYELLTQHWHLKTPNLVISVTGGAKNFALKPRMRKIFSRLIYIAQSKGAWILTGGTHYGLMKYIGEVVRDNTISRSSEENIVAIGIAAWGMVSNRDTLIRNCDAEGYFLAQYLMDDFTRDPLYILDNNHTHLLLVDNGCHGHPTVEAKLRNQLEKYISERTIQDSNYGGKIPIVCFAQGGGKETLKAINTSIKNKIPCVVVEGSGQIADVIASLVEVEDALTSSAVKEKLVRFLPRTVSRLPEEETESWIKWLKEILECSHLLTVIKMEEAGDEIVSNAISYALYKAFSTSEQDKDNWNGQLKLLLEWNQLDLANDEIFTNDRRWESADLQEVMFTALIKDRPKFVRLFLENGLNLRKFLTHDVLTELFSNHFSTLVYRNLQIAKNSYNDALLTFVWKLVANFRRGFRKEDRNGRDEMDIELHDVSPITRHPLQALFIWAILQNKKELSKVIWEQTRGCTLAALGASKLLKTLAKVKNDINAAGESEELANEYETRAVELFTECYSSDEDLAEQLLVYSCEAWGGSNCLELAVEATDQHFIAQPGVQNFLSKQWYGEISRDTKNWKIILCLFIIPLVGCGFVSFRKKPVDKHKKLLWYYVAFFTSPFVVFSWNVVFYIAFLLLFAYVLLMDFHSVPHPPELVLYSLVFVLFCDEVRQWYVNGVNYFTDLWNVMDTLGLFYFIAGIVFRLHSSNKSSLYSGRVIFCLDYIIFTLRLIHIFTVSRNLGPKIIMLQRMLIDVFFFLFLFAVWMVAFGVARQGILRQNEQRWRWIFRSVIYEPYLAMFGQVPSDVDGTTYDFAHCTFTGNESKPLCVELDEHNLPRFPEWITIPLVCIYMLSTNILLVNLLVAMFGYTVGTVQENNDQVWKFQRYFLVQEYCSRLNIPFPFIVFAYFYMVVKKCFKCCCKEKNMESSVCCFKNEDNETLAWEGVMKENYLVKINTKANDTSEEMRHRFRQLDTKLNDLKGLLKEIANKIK
SMILES,EC50 (human TRPM8 receptor) [µM],Initial cooling effect (trained panelists; 20 ppm in 5% sugar solution),Long-lasting action (trained panelists; 20 ppm in 5% sugar solution),Overall cooling intensity (trained panelists; 20 ppm in 5% sugar solution),other results
COc1ccc(OCC(=O)N(CCSC)c2ccccc2)cc1 [2-(4-methoxyphenoxy)-N-(2-methylsulfanylethyl)-N-phenyl-acetamide],30,,,,
CSCCN(C(=O)COc1ccc(C)cc1)c1ccccc1 [2-(4-methylphenoxy)-N-(2-methylsulfanylethyl)-N-phenyl-acetamide],25,2.2,2.8,2.8,
Cc1ccc(OCC(=O)N(c2ccccc2)C2CCOC2)cc1 (centres unmarked) [2-(4-methylphenoxy)-N-phenyl-N-tetrahydrofuran-3-yl-acetamide],25,,,,
"O=C(/C=C/c1ccc2c(c1)OCO2)N(CC1CCCO1)c1cc[nH]n1 (centres unmarked) [(E)-3-(1,3-benzodioxol-5-yl)-N-(1H-pyrazol-3-yl)-N-(tetrahydrofuran-2-ylmethyl)prop-2-enamide]",15,,,,
"CCN(CCSC)C(=O)/C=C/c1ccc2c(c1)OCO2 [(E)-3-(1,3-benzodioxol-5-yl)-N-ethyl-N-(2-methylsulfanylethyl)prop-2-enamide]",15,3.8,4.7,5,
"CCN(CCCSC)C(=O)/C=C/c1ccc2c(c1)OCO2 [(E)-3-(1,3-benzodioxol-5-yl)-N-ethyl-N-(3-methylsulfanylpropyl)prop-2-enamide]",30,,,,
"O=C(/C=C/c1ccc2c(c1)OCO2)N(c1ccccc1)C1CCOC1 (centres unmarked) [(E)-3-(1,3-benzodioxol-5-yl)-N-phenyl-N-tetrahydrofuran-3-yl-prop-2-enamide]",25,5.8,7.9,7.8,Initial cooling effect (trained panelists; 2 ppm in 5% sugar solution): 4.1; Long-lasting action (trained panelists; 2 ppm in 5% sugar solution): 6.9; Overall cooling intensity (trained panelists; 2 ppm in 5% sugar solution): 6.1
COc1ccc(/C=C/C(=O)N(CC2CCCO2)c2cc[nH]n2)cc1 (centres unmarked) [(E)-3-(4-methoxyphenyl)-N-(1H-pyrazol-3-yl)-N-(tetrahydrofuran-2-ylmethyl)prop-2-enamide],25,,,,
COc1ccc(/C=C/C(=O)N(CCSC)c2ccccc2)cc1 [(E)-3-(4-methoxyphenyl)-N-(2-methylsulfanylethyl)-N-phenyl-prop-2-enamide],25,,,,
COc1ccc(/C=C/C(=O)N(c2ccccn2)C2CCSC2)cc1 (centres unmarked) [(E)-3-(4-methoxyphenyl)-N-(2-pyridyl)-N-tetrahydrothiophen-3-yl-prop-2-enamide],25,4.1,5.9,5.6,
COc1ccc(/C=C/C(=O)N(CC2CCCO2)c2ccccc2)cc1 (centres unmarked) [(E)-3-(4-methoxyphenyl)-N-phenyl-N-(tetrahydrofuran-2-ylmethyl)prop-2-enamide],25,,,,
COc1ccc(/C=C/C(=O)N(c2ccccc2)C2CCOC2)cc1 (centres unmarked) [(E)-3-(4-methoxyphenyl)-N-phenyl-N-tetrahydrofuran-3-yl-prop-2-enamide],12.5,,,,
Cc1ccc(/C=C/C(=O)N(c2ccccn2)C2CCSC2)cc1 (centres unmarked) [(E)-3-(p-tolyl)-N-(2-pyridyl)-N-tetrahydrothiophen-3-yl-prop-2-enamide],25,5.3,7.4,7.0,
O=C(/C=C/c1ccccc1)N(c1ccccn1)C1CCSC1 (centres unmarked) [(E)-3-phenyl-N-(2-pyridyl)-N-tetrahydrothiophen-3-yl-prop-2-enamide],30,5.3,7.8,7.8,
COc1ccc(/C=C/C(=O)N(c2ccsc2)C2CCCCC2)cc1 [(E)-N-cyclohexyl-3-(4-methoxyphenyl)-N-(3-thienyl)prop-2-enamide],25,,,,
Cc1ccc(/C=C/C(=O)N(c2ccccc2)C2CCOC2)cc1 (centres unmarked) [(E)-N-phenyl-3-(p-tolyl)-N-tetrahydrofuran-3-ylprop-2-enamide],,4.3,6.1,5.7,
Cc1ccc(OCC(=O)N(Cc2cccs2)c2ccn[nH]2)cc1 [FEMA 4809],,,,,"Initial cooling effect (trained panelists; 2 ppm in 5% sugar solution): 3.9; Long-lasting action (trained panelists; 2 ppm in 5% sugar solution): 7.5; Overall cooling intensity (trained panelists; 2 ppm in 5% sugar solution): 7.3; Cooling intensity ([1]; time 0 sec; 2 ppm FEMA 4809, 50 ppm FEMA 4496, 50 ppm 1) to 5)): 0; Cooling intensity ([1]; time 40 sec; 2 ppm FEMA 4809, 50 ppm FEMA 4496, 50 ppm 1) to 5)): 2.7; Cooling intensity ([1]; time 70 sec; 2 ppm FEMA 4809, 50 ppm FEMA 4496, 50 ppm 1) to 5)): 2.8; Cooling intensity ([1]; time 100 sec; 2 ppm FEMA 4809, 50 ppm FEMA 4496, 50 ppm 1) to 5)): 2.5; Cooling intensity ([1]; time 130 sec; 2 ppm FEMA 4809, 50 ppm FEMA 4496, 50 ppm 1) to 5)): 2.6; Cooling intensity ([1]; time 160 sec; 2 ppm FEMA 4809, 50 ppm FEMA 4496, 50 ppm 1) to 5)): 2.6; Cooling intensity ([1]; time 190 sec; 2 ppm FEMA 4809, 50 ppm FEMA 4496, 50 ppm 1) to 5)): 2.7; Cooling intensity ([1]; time 220 sec; 2 ppm FEMA 4809, 50 ppm FEMA 4496, 50 ppm 1) to 5)): 2.8; Cooling intensity ([1]; time 250 sec; 2 ppm FEMA 4809, 50 ppm FEMA 4496, 50 ppm 1) to 5)): 2.7; Cooling intensity ([1]; time 280 sec; 2 ppm FEMA 4809, 50 ppm FEMA 4496, 50 ppm 1) to 5)): 2.8; Cooling intensity ([1]; time 310 sec; 2 ppm FEMA 4809, 50 ppm FEMA 4496, 50 ppm 1) to 5)): 2.9; Cooling intensity ([1]; time 340 sec; 2 ppm FEMA 4809, 50 ppm FEMA 4496, 50 ppm 1) to 5)): 2.8; Cooling intensity ([1]; time 640 sec; 2 ppm FEMA 4809, 50 ppm FEMA 4496, 50 ppm 1) to 5)): 2.6; Cooling intensity ([1]; time 940 sec; 2 ppm FEMA 4809, 50 ppm FEMA 4496, 50 ppm 1) to 5)): 2.6; Cooling intensity ([1]; time 1240 sec; 2 ppm FEMA 4809, 50 ppm FEMA 4496, 50 ppm 1) to 5)): 2.1; Onset of cooling activity ([1]; time-intensity profile, with respect to WS3): distinctly retarded onset of the cooling action"
Cc1ccc(OCC(=O)N(c2ccsc2)C2CCCCC2)cc1 [N-cyclohexyl-2-(4-methylphenoxy)-N-(3-thienyl)acetamide],30,,,,

# More lines, in order of falling EC50 (human TRPM8 receptor), values ahead:
EC50 (human TRPM8 receptor) [µM],SMILES,Initial cooling effect (trained panelists; 20 ppm in 5% sugar solution),Long-lasting action (trained panelists; 20 ppm in 5% sugar solution),Overall cooling intensity (trained panelists; 20 ppm in 5% sugar solution),other results
12.5,Cc1ccc(OCC(=O)N(c2ccccc2)C2CCSC2)cc1 (centres unmarked) [2-(4-methylphenoxy)-N-phenyl-N-tetrahydrothiophen-3-yl-acetamide],,,,
10,COc1ccc(OCC(=O)N(c2cc[nH]n2)C2CCSC2)cc1 (centres unmarked) [2-(4-methoxyphenoxy)-N-(1H-pyrazol-3-yl)-N-tetrahydrothiophen-3-yl-acetamide],,,,
10,Cc1ccc(OCC(=O)N(CC2CCCO2)c2cc[nH]n2)cc1 (centres unmarked) [2-(4-methylphenoxy)-N-(1H-pyrazol-3-yl)-N-(tetrahydrofuran-2-ylmethyl)acetamide],,,,
10,Cc1ccc(/C=C/C(=O)N(CC2CCCO2)c2cc[nH]n2)cc1 (centres unmarked) [(E)-3-(p-tolyl)-N-(1H-pyrazol-3-yl)-N-(tetrahydrofuran-2-ylmethyl)prop-2-enamide],,,,
10,CCN(CCSC)C(=O)/C=C/c1ccc(C)cc1 [(E)-N-ethyl-N-(2-methylsulfanylethyl)-3-(p-tolyl)prop-2-enamide],,,,
6,"O=C(/C=C/c1ccc2c(c1)OCO2)N(c1ccccn1)C1CCSC1 (centres unmarked) [(E)-3-(1,3-benzodioxol-5-yl)-N-(2-pyridyl)-N-tetrahydrothiophen-3-yl-prop-2-enamide]",6.6,7.9,8.3,
5,"O=C(/C=C/c1ccc2c(c1)OCO2)N(CC1CCCS1)c1cc[nH]n1 (centres unmarked) [(E)-3-(1,3-benzodioxol-5-yl)-N-(1H-pyrazol-3-yl)-N-(tetrahydrothiophen-2-ylmethyl)prop-2-enamide]",,,,
5,"O=C(/C=C/c1ccc2c(c1)OCO2)N(CC1CCCO1)c1ccccc1 (centres unmarked) [(E)-3-(1,3-benzodioxol-5-yl)-N-phenyl-N-(tetrahydrofuran-2-ylmethyl)prop-2-enamide]",3.1,5.3,5.0,
5,Cc1ccc(/C=C/C(=O)N(CC2CCCO2)c2ccccc2)cc1 (centres unmarked) [(E)-N-phenyl-3-(p-tolyl)-N-(tetrahydrofuran-2-ylmethyl)prop-2-enamide],,,,
